The numbers were not newly measured in patent US20200078333A1, “Healthier Aging in Domesticated Animals” (priority 2016, published 2020), which cites them from elsewhere.

The structures appear in SMILES notation.

Series [1] deals with T1, CB1 (Homo sapiens, UniProt P21554). The conditions noted are these: Ca2+ flux induced by AEA. In general terms: Calcium assays in cells follow changes in intracellular calcium, usually with a dye or a luminescent sensor.
In series [2] the target is human CB1 cannabinoid receptors (Homo sapiens, UniProt P21554). The conditions noted are these: selective binding; function as antagonists/inverse agonists.
human CB1 cannabinoid receptors, sequence (P21554 whole entry): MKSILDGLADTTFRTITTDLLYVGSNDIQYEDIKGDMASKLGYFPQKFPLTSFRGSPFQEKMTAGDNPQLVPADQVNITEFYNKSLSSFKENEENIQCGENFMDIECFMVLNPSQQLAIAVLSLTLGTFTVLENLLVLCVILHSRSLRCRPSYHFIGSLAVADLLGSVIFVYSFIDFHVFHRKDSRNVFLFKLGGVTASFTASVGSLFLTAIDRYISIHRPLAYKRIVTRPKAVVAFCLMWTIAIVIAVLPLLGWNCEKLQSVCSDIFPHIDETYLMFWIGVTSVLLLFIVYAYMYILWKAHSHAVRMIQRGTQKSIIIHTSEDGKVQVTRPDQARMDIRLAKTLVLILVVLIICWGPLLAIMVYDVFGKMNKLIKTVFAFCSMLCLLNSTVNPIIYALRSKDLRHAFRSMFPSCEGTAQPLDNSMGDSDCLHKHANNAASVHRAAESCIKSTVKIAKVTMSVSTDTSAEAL
Series [3] has as its target T2, CB2 (Homo sapiens, UniProt P34972).
In series [4] the test system is nitric oxide (NO) production. Particulars: read-out: IC50 for inhibition of NO production.
The target in series [5] is T1, CB1. Particulars: read-out: binding affinity to CB1.
Series [6] concerns the target T2, CB2. The source holds these as a separate data set.
The conditions of series [7]: healthy as well as unhealthy persons.

T2 sequence (P34972 whole entry, species assumed): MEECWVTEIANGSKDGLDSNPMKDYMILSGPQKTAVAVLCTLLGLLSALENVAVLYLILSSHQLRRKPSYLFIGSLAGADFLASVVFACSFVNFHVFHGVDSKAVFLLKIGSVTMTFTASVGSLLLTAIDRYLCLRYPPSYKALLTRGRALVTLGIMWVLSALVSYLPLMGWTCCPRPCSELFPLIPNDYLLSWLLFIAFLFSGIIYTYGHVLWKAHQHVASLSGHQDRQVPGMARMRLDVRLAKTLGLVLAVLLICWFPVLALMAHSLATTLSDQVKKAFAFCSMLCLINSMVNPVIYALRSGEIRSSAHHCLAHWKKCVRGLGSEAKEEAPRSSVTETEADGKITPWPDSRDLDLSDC
T1 sequence (P21554 whole entry, species assumed): as the sequence (P21554 whole entry) above

`CC1(C)[C@@H](O)CC[C@]2(C)[C@H]3C(=O)C=C4[C@@H]5C[C@@](C)(C(=O)O)CC[C@]5(C)CC[C@@]4(C)[C@]3(C)CC[C@@H]12` [18β-glycyrrhetinic acid]: the “inhibition in responses to CB1 agonist” value on CB1 [1] is listed as “more than 90%”.

Turning to `Oc1ccc(/C=C/c2cc(O)cc(O)c2)cc1` [trans-resveratrol], in series [2], the “affinity for human CB1 cannabinoid receptors” value is “nanomolar affinities”.

`COc1cc(/C=C/C(=O)CC(=O)/C=C/c2ccc(O)c(OC)c2)ccc1O` [curcumin]: in series [2], the “affinity for human CB1 cannabinoid receptors” value is reported as “nanomolar affinities”. Further, the “affinity for CB2” value at CB2 [3] is “micromolar affinity”.

On to `C=CCc1ccc(O)c(-c2cc(CC=C)ccc2O)c1` [magnolol], for which, in series [4], the concentration for half-maximal inhibition (IC50) (commonly the concentration at which inhibition is half-maximal) is approximately 6200 nM.

`CCCCCC=CCCC=CC=CC(=O)N1CCCCC1` [1-[(2E,4E,8Z)-tetradecatrienoyl] piperidine]: the figures for the Ki at CB1 [5] and at CB2 [6] (read-out: binding affinity to CB2) were 800 nM and 160 nM, respectively. For the same molecule, on CB2 [6] (ratio CB1/CB2), the “CB1/CB2 affinity (CB2 selectivity)” value was approximately 5.

As to `COC1=C(OC)C(=O)C(C/C=C(\C)CC/C=C(\C)CC/C=C(\C)CC/C=C(\C)CC/C=C(\C)CC/C=C(\C)CC/C=C(\C)CC/C=C(\C)CC/C=C(\C)CCC=C(C)C)=C(C)C1=O` [CoQ10, ubiquinone], the tolerated daily dosage result in series [7] was “up to 3600 mg”.
